Entries after “also recorded” stand apart in the source; their conditions may differ.
What was measured:
[1] = target: T1, human wild-type CFTR (Homo sapiens, UniProt P13569); experiment: Short-circuit current in FRT cells expressing wild-type human CFTR; assay type: cell-based; conditions: short-circuit current, wild-type CFTR
T1 construct: expressed in transfected cells
Procedure: Short-circuit current measurement. Short-circuit current was measured in FRT cells stably expressing wild-type human CFTR cultured on porous filters as described. The basolateral solution contained 130 mM NaCl, 2.7 mM KCl, 1.5 mM KH2PO4, 1 mM CaCl2, 0.5 mM MgCl2, 10 mM glucose, and 10 mM Na-HEPES (pH 7.3, 37° C.). In the apical solution 65 mM NaCl was replaced by Na gluconate, and CaCl2 was increased to 2 mM, and the basolateral membrane was permeabilized with 250 μg/ml amphotericin B. Short-circuit current was measured in freshly harvested adult mouse colon at 37° C. using symmetrical Krebs-bicarbonate buffer.
Short-circuit current. Fischer rat thyroid (FRT) cells stably expressing wild-type human CFTR were cultured on Snapwell inserts (Corning Costar, Corning N.Y., USA) for short-circuit current (Isc) measurements. After 6-9 days in culture, when the transepithelial resistance was >1000 Ω/cm^2, the inserts were mounted in an Ussing chamber system (World Precision Instruments, Sarasota, Fla., USA). The basolateral solution contained 130 mM NaCl, 2.7 mM KCl, 1.5 mM KH2PO4, 1 mM CaCl2, 0.5 mM MgCl2, 10 mM glucose, and 10 mM Na-HEPES (pH 7.3). In the apical bathing solution, 65 mM NaCl was replaced by Na gluconate, and CaCl2 was increased to 2 mM. Both solutions were bubbled with air and maintained at 37° C. The basolateral membrane was permeabilized with 250 μg/ml amphotericin B (26, 27). Hemichambers were connected to a DVC-1000 voltage clamp via Ag/AgCl electrodes and 3 M KCl agar bridges for Isc recording.

[2] = test system: mid-jejunal loops of cystic fibrosis mice; experiment: In vivo intestinal fluid absorption, closed mid-jejunal loops of CF mice; set-up: species or system mouse; conditions: 30 min
Procedure: In vivo intestinal secretion and absorption. Mice (wildtype or CF) were given access to 5% dextrose water but not solid food for 24 h before experiments. Mice were anesthetized with isoflurane and body temperature was maintained during surgery at 36-38° C. using a heating pad. A small abdominal incision was made to expose the small intestine, and closed mid-jejunal loops (length 2-3 cm) were isolated by sutures. Loops were injected with 100 μL vehicle alone or […] CFTRact-J027 in vehicle. The abdominal incision was closed with sutures, and mice were allowed to recover from anesthesia. Intestinal loops were removed at 90 min and loop length and weight were measured to quantify fluid secretion. Intestinal absorption was measured in CF mice (to prevent secretion) as described above, except that the loops were removed at 0 or 30 min. Absorption was calculated as 1-(loop weight at 0 min−loop weight at 30 min)/loop weight at 0 min.
In vivo intestinal secretion and absorption. […] Intestinal loops were removed at 90 min and loop length and weight were measured to quantify fluid secretion. Intestinal absorption was measured in CF mice (to prevent secretion) as described above, except that the loops were removed at 0 or 30 min. Absorption was calculated as 1-(loop weight at 0 min−loop weight at 30 min)/loop weight at 0 min.

[3] = Pharmacokinetics after ip or oral administration; assay type: in vivo, mouse
Procedure: Pharmacokinetics. All animal experiments were approved by UCSF Institutional Animal Care and Use Committee. Female CD1 mice were treated with 10 mg/kg CFTRact-J027 (saline containing 5% DMSO and 10% Kolliphor HS 15) either intraperitoneally (ip) or orally. Blood was collected at 15, 30, 60, 150, 240 and 360 min after treatment by orbital puncture and centrifuged at 5000 rpm for 15 min to separate plasma. Plasma samples (60 μL) were mixed with 300 μL acetonitrile and centrifuged at 13000 rpm for 20 min, and 90 μL of the supernatant was used for LC/MS. The solvent system consisted of a linear gradient from 5 to 95% acetonitrile over 16 min (0.2 ml/min flow). Mass spectra was acquired on a mass spectrometer (Waters 2695 and Micromass ZQ) using electrospray (+) ionization, mass ranging from 100 to 1500 Da, cone voltage 40 V. Calibration standards were prepared in plasma from untreated mice to which known amounts of CFTRact-J027 were added.

[4] = test system: tear secretion; experiment: Tear secretion (phenol red thread); assay type: in vivo, mouse; conditions: single topical dose, for (at least) four hours
[5] = Ocular toxicity after chronic topical dosing (slit-lamp, lissamine green); assay type: in vivo; conditions: chronically treated mice
Procedure: Lissamine green staining. To assess corneal epithelial disruption, 5 μL of lissamine green (LG) dye (1%) was applied to the ocular surface of isofluorane-anesthetized mice. Photographs of the eye were taken using a Nikon Digital camera adapted to an Olympus Zoom Stereo Microscope (Olympus, Center Valley, Pa., USA). Each corneal quadrant was scored on a 3-point scale by one blinded, trained observer, with the extent of staining in each quadrant classified as: 0, no staining; 1, sporadic (involving <25% of the total surface) staining; grade 2, diffuse punctate staining (25-75%); and grade 3, coalesced punctate staining (>75%). The total grade is reported as the sum of scores from all four quadrants, ranging from 0 to 12.

[6] = test system: loperamide-induced mouse model of constipation; experiment: Loperamide-induced mouse model of constipation

T1 sequence (P13569 whole entry): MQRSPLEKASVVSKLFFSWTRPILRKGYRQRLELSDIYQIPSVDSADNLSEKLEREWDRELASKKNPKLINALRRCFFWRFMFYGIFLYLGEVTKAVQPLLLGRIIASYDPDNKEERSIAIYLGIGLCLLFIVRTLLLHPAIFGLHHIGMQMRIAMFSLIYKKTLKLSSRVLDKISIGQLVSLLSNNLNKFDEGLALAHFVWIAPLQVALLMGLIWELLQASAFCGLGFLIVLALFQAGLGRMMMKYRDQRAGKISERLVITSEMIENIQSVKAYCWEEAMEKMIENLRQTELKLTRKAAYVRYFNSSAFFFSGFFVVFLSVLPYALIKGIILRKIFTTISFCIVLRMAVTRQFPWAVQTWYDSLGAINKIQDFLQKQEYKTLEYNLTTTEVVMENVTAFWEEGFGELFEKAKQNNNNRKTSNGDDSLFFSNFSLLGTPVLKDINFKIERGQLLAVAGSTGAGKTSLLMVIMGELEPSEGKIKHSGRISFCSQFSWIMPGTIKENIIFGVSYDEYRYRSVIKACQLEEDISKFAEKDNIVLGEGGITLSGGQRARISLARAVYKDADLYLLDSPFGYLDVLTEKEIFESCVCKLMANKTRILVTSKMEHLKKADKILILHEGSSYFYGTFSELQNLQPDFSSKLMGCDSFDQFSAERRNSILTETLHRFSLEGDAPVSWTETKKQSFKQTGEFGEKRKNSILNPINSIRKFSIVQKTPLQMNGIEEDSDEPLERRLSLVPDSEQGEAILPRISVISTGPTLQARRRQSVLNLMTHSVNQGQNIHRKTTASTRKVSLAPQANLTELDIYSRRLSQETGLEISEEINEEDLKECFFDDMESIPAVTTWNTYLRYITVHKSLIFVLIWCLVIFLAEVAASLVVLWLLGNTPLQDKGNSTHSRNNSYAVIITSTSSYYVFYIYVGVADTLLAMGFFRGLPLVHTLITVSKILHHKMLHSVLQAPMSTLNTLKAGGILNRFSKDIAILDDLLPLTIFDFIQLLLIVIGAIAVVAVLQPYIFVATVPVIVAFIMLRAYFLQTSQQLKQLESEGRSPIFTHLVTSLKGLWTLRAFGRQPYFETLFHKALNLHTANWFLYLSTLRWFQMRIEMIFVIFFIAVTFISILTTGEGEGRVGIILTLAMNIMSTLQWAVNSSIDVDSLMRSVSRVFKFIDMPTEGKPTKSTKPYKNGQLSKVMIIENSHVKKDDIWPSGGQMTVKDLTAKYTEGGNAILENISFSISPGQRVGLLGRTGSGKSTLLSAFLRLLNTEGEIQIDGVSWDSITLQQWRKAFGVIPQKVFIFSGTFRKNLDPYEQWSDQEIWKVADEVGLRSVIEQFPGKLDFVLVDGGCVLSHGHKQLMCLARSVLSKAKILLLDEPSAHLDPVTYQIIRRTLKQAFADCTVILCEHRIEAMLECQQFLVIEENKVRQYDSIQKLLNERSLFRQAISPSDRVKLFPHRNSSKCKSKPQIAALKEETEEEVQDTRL

Nc1ccc([N+](=O)[O-])cc1-c1nc2ccccc2n(Cc2ccccc2)c1=O [CFTRact-J027, 3-(2-amino-5-nitrophenyl)-1-benzylquinoxalin-2(1H)-one]
CFTR activation (in words) [1]: fully activated CFTR chloride conductance | intestinal fluid absorption [2]: did not affect | elimination half-life of serum concentration ([3]; 10 mg/kg ip): ~16 min | bioavailability (in words) ([3]; 10 mg/kg oral): very low bioavailability; also recorded: minimal bioavailability | blood levels relative to EC50 for CFTR activation ([3]; 10 mg/kg oral): well below the EC50 | increase of tear fluid secretion [4]: approximately two-fold | LG staining, corneal or conjunctival epithelial disruption [5]: no corneal or conjunctival epithelial disruption | ocular toxicity by slit-lamp evaluation [5]: no signs of ocular toxicity | stool weight, pellet number and water content ([6]; intraperitoneal 10 mg/kg, loperamide-treated mice, 3 h): normalizes stool output and water content | stool output or water content in control mice ([6]; intraperitoneal, non-loperamide-treated mice): did not affect | effect in cystic fibrosis mice lacking functional CFTR ([6]; loperamide model, CF mice): without effect | efficacy after chronic administration ([6]; oral 10 mg/kg for 7 days, loperamide 1 h after final dose): remained effective | stool output and water content ([6]; oral administration (10 mg/kg, 1 h prior to loperamide), 10 mg/kg): normalized stool output and water content; also recorded: effective in normalizing stool output and water content

From patent US11192869B2, “CFTR regulators and methods of use thereof” (THE REGENTS OF THE UNIVERSITY OF CALIFORNIA, priority 2015, dated 2021)
